According to patent publication US4451284A, “Derivatives of 2-nitro-4- or -5-pyridyloxyphenylphosphonic acid, the preparation thereof, the use thereof as herbicides and/or plant growth regulators” (Ciba-Geigy Corporation, priority 1981, dated 1984):
Read-outs that look alike come from different tables or passages of the source.

How the values were obtained:
Assay type in all cases: in vivo
[1] = system: Erysiphe graminis; experiment: Action against Erysiphe graminis on barley; settings: 0.02% spray mixture, 10 days
Experimental: Barley plants about 8 cm in height are sprayed with a spray mixture (0.02% of compound of formula I) prepared from a 25% emulsifiable concentrate. After 3-4 hours the plants are dusted with conidia of Erysiphe graminis. The infected barley plants are then stood in a greenhouse at about 22° C. Evaluation of fungus attack is made 10 days later.

[2] = system: Setaria; experiment: Postemergence herbicidal action (contact herbicide), compounds of formula I, Setaria; settings: 4 kg a.i./ha, 15 days
Experimental: (§1) The weeds to be tested are sprayed postemergence (in the 4- to 6-leaf stage) with an aqueous dispersion prepared from compounds of formula I formulated as (a) a 10% or (b) a 25% wettable powder or (c) a 25% emulsifiable concentrate, at a rate of application of 4 kg a.i./ha. The plants are kept at 24°-26° C. and 45-60% relative humidity. The test is evaluated 15 days later in accordance with the same rating as used in the preemergence test (Example 19).

[3] = system: weeds; experiment: Postemergence herbicidal action (contact herbicide), compounds of formula I, overall; settings: 4 kg a.i./ha, 15 days later
Experimental: as §1

[4] = system: Solanum; experiment: Postemergence herbicidal action (contact herbicide), compounds of formula I, Solanum; parameters: key: 1: plants have not germinated or have completely died off; 2-3: very pronounced action; 4-6: medium action; 7-8: slight action; 9: no action (as untreated controls); settings: 4 kg a.i./ha, 15 days
Experimental: as §1

[5] = system: Sinapis; experiment: Postemergence herbicidal action (contact herbicide), compounds of formula I, Sinapis; parameters: key: 1: plants have not germinated or have completely died off; 2-3: very pronounced action; 4-6: medium action; 7-8: slight action; 9: no action (as untreated controls); settings: 4 kg a.i./ha, 15 days
Experimental: as §1

[6] = system: Xanthomonas oryzae; settings: for bactericidal properties in words: residual-protective action
[7] = system: Xanthomonas oryzae; settings: for bactericidal activity: based on the volume of the soil
[8] = system: Stellaria; experiment: Preemergence herbicidal action (inhibition of germination), Stellaria; parameters: key to preemergence herbicidal action rating: 1: plants have not germinated or have completely died off; 2-3: very pronounced action; 4-6: medium action; 7-8: slight action; 9: no action (as untreated controls); settings: 4 kg a.i./ha, after 3 weeks
Experimental: (§2) In a greenhouse, immediately after sowing seeds of test plants in seed dishes, the surface of the soil is treated with an aqueous dispersion prepared from a 10% wettable powder formulation of test compounds of formula I. Concentrations of 4 kg of active ingredient per hectare are used. The seed dishes are kept in the greenhouse at 22°-25° C. and 50-70% relative humidity, and the test is evaluated after 3 weeks in accordance with the following rating: […]

[9] = system: Sinapis; experiment: Preemergence herbicidal action (inhibition of germination), Sinapis; settings: 4 kg a.i./ha, after 3 weeks
Experimental: as §2

[10] = system: Setaria; experiment: Preemergence herbicidal action (inhibition of germination), Setaria; parameters: key to preemergence herbicidal action rating: 1: plants have not germinated or have completely died off; 2-3: very pronounced action; 4-6: medium action; 7-8: slight action; 9: no action (as untreated controls); settings: 4 kg a.i./ha, after 3 weeks
Experimental: as §2

[11] = system: Solanum; experiment: Postemergence herbicidal action (contact herbicide), compounds of formula II, Solanum; parameters: key to postemergence herbicidal action rating: 1: plants completely withered; 2-3: very pronounced action; 4-6: medium action; 7-8: insignificant action; 9: no action (as untreated controls); settings: 4 kg a.i./ha, 15 days; for postemergence herbicidal action rating: 25% wettable powder; for herbicidal action in words: postemergence
Experimental: (§3) The plants for testing are sprayed postemergence (in the 4- to 6-leaf stage) at a concentration of 4 kg a.i./ha with an aqueous dispersion prepared from a compound of formula II formulated as a 25% wettable powder. The plants are then kept at 24°-26° C. and 45-60% relative humidity. The test is evaluated 15 days later according to the following rating: […]

[12] = system: Phaseolus; experiment: Postemergence herbicidal action (contact herbicide), compounds of formula II, Phaseolus; parameters: key to postemergence herbicidal action rating: 1: plants completely withered; 2-3: very pronounced action; 4-6: medium action; 7-8: insignificant action; 9: no action (as untreated controls); settings: 4 kg a.i./ha, 15 days; for postemergence herbicidal action rating: 25% wettable powder; for herbicidal action in words: postemergence
Experimental: as §3

[13] = formulation (c) 25% emulsifiable concentrate
[14] = formulation (b) 25% wettable powder
[15] = formulation (a) 10% wettable powder

COP(=O)(OC)c1cc(Oc2ccc(C(F)(F)F)cn2)ccc1[N+](=O)[O-] [Compound 1]
reduction of fungus attack compared with untreated controls ([1]; 25% emulsifiable concentrate, untreated = 100% attack): 80-95% | effectiveness in words [1]: particularly effective | postemergence herbicidal action rating [2, 13]: 4 | postemergence effectiveness in words [3]: very effective | postemergence herbicidal action rating [4, 13]: 4 | postemergence herbicidal action rating [5, 13]: 3

COP(=O)(OC)c1cc(Oc2ncc(Cl)cc2Cl)ccc1[N+](=O)[O-] [Compound 4, Dimethyl 2-nitro-5-(3',5'-dichloro-2'-pyridyloxy)phenylphosphonate]
postemergence herbicidal action rating [2, 14]: 3 | action ([6]; concentration of 0.0006%): 80-95% | action ([6]; concentration of 0.006%): over 95% | bactericidal properties in words [6]: pronounced bactericidal properties | postemergence effectiveness in words [3]: very effective | postemergence herbicidal action rating [4, 14]: 2 | bactericidal activity ([7]; concentration of 0.0006%): 50-80% | bactericidal activity ([7]; concentration of 0.006%): over 95% | bactericidal activity in words ([7]; systemic action): pronounced bactericidal activity | postemergence herbicidal action rating [5, 14]: 3

COP(=O)(OC)c1cc(Oc2ncc(C(F)(F)F)cc2Cl)ccc1[N+](=O)[O-] [Compound 6, Dimethyl 2-nitro-5-(3'-chloro-5'-trifluoromethyl-2'-pyridyloxy)phenylphosphonate]
preemergence herbicidal action rating ([8]; 10% wettable powder): 1 | preemergence effectiveness in words [8]: very effective | postemergence herbicidal action rating [2, 15]: 3 | action ([6]; concentration of 0.02%): over 95% | bactericidal properties in words [6]: pronounced bactericidal properties | preemergence herbicidal action rating ([9]; 10% wettable powder): 2 | preemergence effectiveness in words [9]: very effective | postemergence effectiveness in words [3]: very effective | postemergence herbicidal action rating [4, 15]: 1 | preemergence herbicidal action rating ([10]; 10% wettable powder): 1 | preemergence effectiveness in words [10]: very effective | postemergence herbicidal action rating [5, 15]: 1

CCOP(=O)(OCC)c1cc(Oc2ncc(C(F)(F)F)cc2Cl)ccc1[N+](=O)[O-] [Compound 7, Diethyl 2-nitro-5-(3'-chloro-5'-trifluoromethyl-2'-pyridyloxy)phenylphosphonate]
postemergence herbicidal action rating [2, 13]: 3 | postemergence effectiveness in words [3]: very effective | postemergence herbicidal action rating [4, 13]: 1 | postemergence herbicidal action rating [5, 13]: 2

CCOP(=O)(OCC)c1cc(Oc2ncc(Cl)cc2Cl)ccc1[N+](=O)[O-] [Compound 9, Diethyl 2-nitro-5-(3',5'-dichloro-2'-pyridyloxy)phenylphosphonate]
postemergence herbicidal action rating [2, 13]: 2 | postemergence effectiveness in words [3]: very effective | postemergence herbicidal action rating [4, 13]: 1 | postemergence herbicidal action rating [5, 13]: 2

O=[N+]([O-])c1ccc(Oc2ncc(C(F)(F)F)cc2Cl)cc1[N+](=O)[O-] [II-2, 1,2-dinitro-4-(3'-chloro-5'-trifluoromethyl-2'-pyridyloxy)benzene]
postemergence herbicidal action rating [11]: 1 | herbicidal action in words [11]: excellent herbicidal action | postemergence herbicidal action rating [12]: 1 | herbicidal action in words [12]: excellent herbicidal action

O=[N+]([O-])c1ccc(Oc2ccc(C(F)(F)F)cn2)cc1[N+](=O)[O-] [II-3, 1,2-dinitro-4-(5'-trifluoromethyl-2'-pyridyloxy)benzene]
postemergence herbicidal action rating [11]: 3 | herbicidal action in words [11]: excellent herbicidal action | postemergence herbicidal action rating [12]: 1 | herbicidal action in words [12]: excellent herbicidal action
